# From PubChem BioAssay AID977609 (Broad Institute, 2014)
# The source made the active and inactive calls.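 How the source made its calls: active means a rise in signal, meaning less cAMP, whose fitted curve reaches 40% at or below the top valid tested dose; inconclusive means flat fit between 30% and 70%, or a poor fit; inactive means the rest.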
# Test system: Drosophila melanogaster bursicon receptor LGR2 (rickets)
# Assay: bursicon receptor inhibitors, cAMP readout – cell-based, HEK293 transfected, TR-FRET cAMP, dry powder, orthogonal assay for LGR2 antagonist project, dose response (AID 977609)
# Details: bursicon-stimulated cAMP, Lance TR-FRET
row,AC40,Structure (SMILES)
1,> 50 µM (inactive),C[C@@H]1CN([C@H](C)CO)C(=O)c2cc(NC(=O)C3CCCCC3)ccc2O[C@@H](C)CCCCO[C@@H]1CN(C)C(=O)Nc1cccc2ccccc12
2,1.75 µM,C[C@H](CO)N1C[C@H](C)[C@H](CN(C)C(=O)Nc2ccc(F)cc2)OCCCC[C@H](C)Oc2ccc(NC(=O)C3CCCC3)cc2C1=O
3,7.54 µM,C[C@H](CO)N1C[C@H](C)[C@H](CN(C)C(=O)Nc2ccccc2)OCCCC[C@H](C)Oc2ccc(NC(=O)Nc3ccc4c(c3)OCO4)cc2C1=O
4,0.858 µM,C[C@H](CO)N1C[C@H](C)[C@H](CN(C)C(=O)Nc2cccc(F)c2)OCCCC[C@H](C)Oc2ccc(NC(=O)C3CCCCC3)cc2C1=O
5,5.86 µM,C[C@H](CO)N1C[C@H](C)[C@H](CN(C)C(=O)Nc2ccccc2)OCCCC[C@H](C)Oc2ccc(NC(=O)Nc3ccccc3)cc2C1=O
6,0.219 µM,C[C@H](CO)N1C[C@H](C)[C@H](CN(C)C(=O)Nc2ccc3ccccc3c2)OCCCC[C@H](C)Oc2ccc(NC(=O)C3CCCCC3)cc2C1=O
7,1.65 µM,C[C@H](CO)N1C[C@H](C)[C@H](CN(C)C(=O)Nc2cccc3ccccc23)OCCCC[C@H](C)Oc2ccc(NC(=O)NC3CCCCC3)cc2C1=O
8,1.05 µM,Cc1ccc(NC(=O)N(C)C[C@@H]2OCCCC[C@H](C)Oc3ccc(NC(=O)C4CCCCC4)cc3C(=O)N([C@H](C)CO)C[C@@H]2C)cc1
9,1.48 µM,COc1ccc(NC(=O)N(C)C[C@@H]2OCCCC[C@H](C)Oc3ccc(NC(=O)C4CCCCC4)cc3C(=O)N([C@H](C)CO)C[C@@H]2C)cc1
10,2.04 µM,COc1ccc(NC(=O)N(C)C[C@@H]2OCCCC[C@H](C)Oc3ccc(NC(=O)NC4CCCCC4)cc3C(=O)N([C@H](C)CO)C[C@@H]2C)cc1
11,> 50 µM (inactive),C[C@@H]1CCCCO[C@@H](CN(C)C(=O)Nc2cccc3ccccc23)[C@H](C)CN([C@@H](C)CO)C(=O)c2cc(NC(=O)C3CCCCC3)ccc2O1
12,3.22 µM,C[C@H](CO)N1C[C@H](C)[C@H](CN(C)C(=O)Nc2ccccc2)OCCCC[C@H](C)Oc2ccc(NC(=O)NC3CCCCC3)cc2C1=O
13,> 50 µM (inactive),C[C@@H]1CN([C@@H](C)CO)C(=O)c2cc(NC(=O)C3CCCCC3)ccc2O[C@@H](C)CCCCO[C@H]1CN(C)C(=O)Nc1cccc2ccccc12
14,3.79 µM,C[C@H]1CCCCO[C@@H](CN(C)C(=O)Nc2ccc3c(c2)OCO3)[C@@H](C)CN([C@@H](C)CO)C(=O)c2cc(NC(=O)NC3CCCCC3)ccc2O1
15,2.71 µM,C[C@H](CO)N1C[C@H](C)[C@H](CN(C)C(=O)Nc2ccc(C(F)(F)F)cc2)OCCCC[C@H](C)Oc2ccc(NC(=O)NC3CCCCC3)cc2C1=O
16,0.248 µM,C[C@H](CO)N1C[C@H](C)[C@H](CN(C)C(=O)Nc2ccc(F)cc2)OCCCC[C@H](C)Oc2ccc(NC(=O)C3CCCCCC3)cc2C1=O
17,0.129 µM,C[C@H](CO)N1C[C@H](C)[C@H](CN(C)C(=O)Nc2cccc3ccccc23)OCCCC[C@H](C)Oc2ccc(NC(=O)C3CCCCC3)cc2C1=O
18,> 50 µM (inactive),C[C@@H]1CCCCO[C@H](CN(C)C(=O)Nc2cccc3ccccc23)[C@@H](C)CN([C@@H](C)CO)C(=O)c2cc(NC(=O)C3CCCCC3)ccc2O1
19,25 µM,C[C@H](CO)N1C[C@H](C)[C@H](CN(C)C(=O)Nc2ccc(F)cc2)OCCCC[C@H](C)Oc2ccc(NC(=O)C3CCOCC3)cc2C1=O
20,3.58 µM,C[C@H]1CCCCO[C@@H](CN(C)C(=O)Nc2ccccc2)[C@@H](C)CN([C@@H](C)CO)C(=O)c2cc(NC(=O)NC3CCCCC3)ccc2O1
21,5.49 µM,C[C@H](CO)N1C[C@H](C)[C@H](CN(C)C(=O)Nc2ccc3c(c2)OCO3)OCCCC[C@H](C)Oc2ccc(NC(=O)NC3CCCCC3)cc2C1=O
22,0.736 µM,C[C@H](CO)N1C[C@H](C)[C@H](CN(C)C(=O)Nc2ccccc2)OCCCC[C@H](C)Oc2ccc(NC(=O)C3CCCCC3)cc2C1=O

# The next lines start with the compound.
row,Structure (SMILES),AC40
1,C[C@H](CO)N1C[C@H](C)[C@H](CN(C)C(=O)Nc2cccc3ccccc23)OCCCC[C@H](C)Oc2ccc(NC(=O)CCC(F)(F)F)cc2C1=O,1.95 µM
2,C[C@H]1CCCCO[C@H](CN(C)C(=O)Nc2cccc3ccccc23)[C@@H](C)CN([C@@H](C)CO)C(=O)c2cc(NC(=O)C3CCCCC3)ccc2O1,> 50 µM (inactive)
3,C[C@H]1CCCCO[C@@H](CN(C)C(=O)Nc2ccc(F)cc2)[C@@H](C)CN([C@@H](C)CO)C(=O)c2cc(NC(=O)C3CCCCC3)ccc2O1,1.38 µM
4,C[C@H](CO)N1C[C@H](C)[C@H](CN(C)C(=O)Nc2ccccc2)OCCCC[C@H](C)Oc2ccc(NC(=O)CCC(F)(F)F)cc2C1=O,1.53 µM
5,C[C@H]1CCCCO[C@@H](CN(C)C(=O)Nc2ccc(C(F)(F)F)cc2)[C@@H](C)CN([C@@H](C)CO)C(=O)c2cc(NC(=O)CCC(F)(F)F)ccc2O1,2.16 µM
6,C[C@H](CO)N1C[C@H](C)[C@H](CN(C)C(=O)Nc2ccc(F)cc2)OCCCC[C@H](C)Oc2ccc(NC(=O)C3CCC3)cc2C1=O,4.98 µM
7,C[C@H](CO)N1C[C@H](C)[C@H](CN(C)C(=O)Nc2ccc(F)cc2)OCCCC[C@H](C)Oc2ccc(NC(=O)C3CCCCC3)cc2C1=O,0.501 µM
8,C[C@H](CO)N1C[C@H](C)[C@H](CN(C)C(=O)Nc2ccc(F)cc2)OCCCC[C@H](C)Oc2ccc(NC(=O)Nc3ccccc3)cc2C1=O,2.89 µM
9,C[C@H](CO)N1C[C@H](C)[C@H](CN(C)C(=O)Nc2ccccc2F)OCCCC[C@H](C)Oc2ccc(NC(=O)C3CCCCC3)cc2C1=O,0.515 µM
10,C[C@H](CO)N1C[C@H](C)[C@H](CN(C)C(=O)Nc2ccc(Cl)cc2)OCCCC[C@H](C)Oc2ccc(NC(=O)C3CCCCC3)cc2C1=O,0.853 µM
11,CC(=O)Nc1ccc2c(c1)C(=O)N([C@H](C)CO)C[C@H](C)[C@H](CN(C)C(=O)Nc1ccc(F)cc1)OCCCC[C@H](C)O2,> 50 µM (inactive)
12,C[C@@H]1CCCCO[C@H](CN(C)C(=O)Nc2cccc3ccccc23)[C@@H](C)CN([C@H](C)CO)C(=O)c2cc(NC(=O)C3CCCCC3)ccc2O1,> 50 µM (inactive)
13,C[C@H](CO)N1C[C@H](C)[C@H](CN(C)C(=O)Nc2ccc(F)cc2)OCCCC[C@H](C)Oc2ccc(NC(=O)C3CC3)cc2C1=O,49.6 µM
14,COc1ccc(S(=O)(=O)N(C)C[C@@H]2OCCCC[C@H](C)Oc3ccc(NS(=O)(=O)c4ccc(F)cc4)cc3C(=O)N([C@@H](C)CO)C[C@@H]2C)cc1,> 50 µM (inactive)
15,C[C@H](CO)N1C[C@H](C)[C@H](CN(C)C(=O)Nc2cccc3ccccc23)OCCCC[C@H](C)Oc2ccc(NC(=O)c3ccccc3)cc2C1=O,2.49 µM
16,C[C@@H]1CCCCO[C@@H](CN(C)C(=O)Nc2cccc3ccccc23)[C@@H](C)CN([C@@H](C)CO)C(=O)c2cc(NC(=O)C3CCCCC3)ccc2O1,> 50 µM (inactive)
17,C[C@H](CO)N1C[C@H](C)[C@H](CN(C)C(=O)Nc2ccc(F)cc2)OCCCC[C@H](C)Oc2ccc(NC(=O)Nc3ccc(F)cc3)cc2C1=O,4.69 µM
18,C[C@H](CO)N1C[C@H](C)[C@H](CN(C)C(=O)Nc2ccc(F)cc2)OCCCC[C@H](C)Oc2ccc(NC(=O)NC3CCCCC3)cc2C1=O,3.91 µM
19,C[C@H]1CCCCO[C@@H](CN(C)S(=O)(=O)c2ccc(Cl)cc2)[C@@H](C)CN([C@@H](C)CO)C(=O)c2cc(NC(=O)NC3CCCCC3)ccc2O1,> 50 µM (inactive)
20,C[C@@H]1CCCCO[C@H](CN(C)C(=O)Nc2cccc3ccccc23)[C@H](C)CN([C@H](C)CO)C(=O)c2cc(NC(=O)C3CCCCC3)ccc2O1,> 50 µM (inactive)
21,C[C@H](CO)N1C[C@H](C)[C@@H](CN(C)C(=O)Nc2cccc3ccccc23)OCCCC[C@H](C)Oc2ccc(NC(=O)C3CCCCC3)cc2C1=O,> 50 µM (inactive)
22,C[C@@H]1CN([C@H](C)CO)C(=O)c2cc(NC(=O)C3CCCCC3)ccc2O[C@@H](C)CCCCO[C@H]1CN(C)C(=O)Nc1cccc2ccccc12,> 50 µM (inactive)
23,C[C@H](CO)N1C[C@H](C)[C@H](CN(C)C(=O)Nc2ccc(C(F)(F)F)cc2)OCCCC[C@H](C)Oc2ccc(NC(=O)CCC(F)(F)F)cc2C1=O,0.949 µM
24,C[C@H]1CCCCO[C@@H](CN(C)C(=O)Nc2cccc3ccccc23)[C@@H](C)CN([C@@H](C)CO)C(=O)c2cc(NC(=O)C3CCCCC3)ccc2O1,0.353 µM
25,C[C@H](CO)N1C[C@H](C)[C@H](CN(C)C(=O)Nc2ccc3c(c2)OCO3)OCCCC[C@H](C)Oc2ccc(NC(=O)C3CCCCC3)cc2C1=O,0.837 µM

# Same assay, conditions: bursicon-stimulated cAMP, Lance TR-FRET, at 50 µM (top of the series)
row,inhibition of cAMP,Structure (SMILES)
1,10.1% (inactive),C[C@@H]1CN([C@@H](C)CO)C(=O)c2cc(NC(=O)C3CCCCC3)ccc2O[C@@H](C)CCCCO[C@@H]1CN(C)C(=O)Nc1cccc2ccccc12
2,9.18% (inactive),CC(C)(C)c1ccc(-c2nc(-c3ccncc3)no2)cc1
3,-5.85% (inactive),C[C@@H]1CCCCO[C@@H](CN(C)C(=O)Nc2cccc3ccccc23)[C@H](C)CN([C@H](C)CO)C(=O)c2cc(NC(=O)C3CCCCC3)ccc2O1
4,6.28% (inactive),COc1ccc(S(=O)(=O)N(C)C[C@@H]2OCCCC[C@H](C)Oc3ccc(NS(=O)(=O)c4ccc(Cl)cc4)cc3C(=O)N([C@@H](C)CO)C[C@@H]2C)cc1

# More lines, now with the values behind:
row,Structure (SMILES),inhibition of cAMP
1,C[C@@H]1CCCCO[C@H](CN(C)C(=O)Nc2cccc3ccccc23)[C@H](C)CN([C@@H](C)CO)C(=O)c2cc(NC(=O)C3CCCCC3)ccc2O1,16% (inactive)
2,C[C@@H]1CCCCO[C@@H](CN(C)C(=O)Nc2cccc3ccccc23)[C@@H](C)CN([C@H](C)CO)C(=O)c2cc(NC(=O)C3CCCCC3)ccc2O1,-2.89% (inactive)
